These are literature values, as cited in publication PMC9516332 (Frontiers in Oncology, 2022).

Where two headings read alike, the source gives them in different places.

Data set [1] deals with T1, panel of 255 wild-type kinases (Homo sapiens, UniProt O15111).
T1 sequence (O15111 1-745): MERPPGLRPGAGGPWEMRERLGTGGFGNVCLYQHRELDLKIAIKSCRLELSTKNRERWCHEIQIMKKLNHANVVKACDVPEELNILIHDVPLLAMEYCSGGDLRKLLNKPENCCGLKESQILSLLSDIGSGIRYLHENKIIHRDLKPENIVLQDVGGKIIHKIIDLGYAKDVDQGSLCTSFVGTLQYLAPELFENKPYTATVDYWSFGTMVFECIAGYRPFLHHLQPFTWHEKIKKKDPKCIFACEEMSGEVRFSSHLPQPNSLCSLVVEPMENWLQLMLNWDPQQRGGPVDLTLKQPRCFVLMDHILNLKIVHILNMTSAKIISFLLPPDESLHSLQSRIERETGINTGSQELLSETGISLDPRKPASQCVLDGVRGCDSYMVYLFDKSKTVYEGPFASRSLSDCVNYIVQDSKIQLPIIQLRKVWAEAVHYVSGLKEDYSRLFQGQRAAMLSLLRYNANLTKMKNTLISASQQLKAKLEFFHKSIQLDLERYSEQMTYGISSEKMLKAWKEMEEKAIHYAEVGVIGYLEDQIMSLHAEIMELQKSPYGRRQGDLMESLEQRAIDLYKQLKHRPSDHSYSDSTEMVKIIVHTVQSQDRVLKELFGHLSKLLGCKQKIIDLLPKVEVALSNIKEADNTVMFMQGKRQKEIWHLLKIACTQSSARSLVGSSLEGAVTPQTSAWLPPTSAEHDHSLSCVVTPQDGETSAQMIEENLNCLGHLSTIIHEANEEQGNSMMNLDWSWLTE
The following applies: kinase IKKα, 1 µmol/L single concentration, cited from earlier work.

The target in data set [2] is panel of 255 wild-type kinases (Homo sapiens, UniProt P07949). The following applies: kinase RET, 1 µmol/L single concentration, cited from earlier work.
In data set [3] the target is T2, panel of 255 wild-type kinases (Homo sapiens, UniProt P51955).
T2 sequence (P51955 1-445): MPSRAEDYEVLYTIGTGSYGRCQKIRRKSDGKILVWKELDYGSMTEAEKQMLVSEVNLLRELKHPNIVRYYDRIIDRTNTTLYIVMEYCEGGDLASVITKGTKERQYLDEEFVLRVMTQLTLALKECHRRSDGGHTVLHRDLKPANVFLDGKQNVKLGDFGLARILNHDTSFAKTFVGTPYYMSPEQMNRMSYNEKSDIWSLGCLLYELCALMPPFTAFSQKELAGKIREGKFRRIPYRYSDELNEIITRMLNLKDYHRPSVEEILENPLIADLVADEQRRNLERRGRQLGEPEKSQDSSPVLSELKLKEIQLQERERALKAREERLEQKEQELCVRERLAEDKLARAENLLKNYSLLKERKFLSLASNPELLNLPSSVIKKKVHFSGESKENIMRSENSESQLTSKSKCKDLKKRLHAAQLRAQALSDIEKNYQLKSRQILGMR
The settings on record: NEK2, 1 µmol/L single concentration, cited from earlier work.

In data set [4] the target is T3, panel of 255 wild-type kinases (Homo sapiens, UniProt P54762).
T3 sequence (P54762 18-984): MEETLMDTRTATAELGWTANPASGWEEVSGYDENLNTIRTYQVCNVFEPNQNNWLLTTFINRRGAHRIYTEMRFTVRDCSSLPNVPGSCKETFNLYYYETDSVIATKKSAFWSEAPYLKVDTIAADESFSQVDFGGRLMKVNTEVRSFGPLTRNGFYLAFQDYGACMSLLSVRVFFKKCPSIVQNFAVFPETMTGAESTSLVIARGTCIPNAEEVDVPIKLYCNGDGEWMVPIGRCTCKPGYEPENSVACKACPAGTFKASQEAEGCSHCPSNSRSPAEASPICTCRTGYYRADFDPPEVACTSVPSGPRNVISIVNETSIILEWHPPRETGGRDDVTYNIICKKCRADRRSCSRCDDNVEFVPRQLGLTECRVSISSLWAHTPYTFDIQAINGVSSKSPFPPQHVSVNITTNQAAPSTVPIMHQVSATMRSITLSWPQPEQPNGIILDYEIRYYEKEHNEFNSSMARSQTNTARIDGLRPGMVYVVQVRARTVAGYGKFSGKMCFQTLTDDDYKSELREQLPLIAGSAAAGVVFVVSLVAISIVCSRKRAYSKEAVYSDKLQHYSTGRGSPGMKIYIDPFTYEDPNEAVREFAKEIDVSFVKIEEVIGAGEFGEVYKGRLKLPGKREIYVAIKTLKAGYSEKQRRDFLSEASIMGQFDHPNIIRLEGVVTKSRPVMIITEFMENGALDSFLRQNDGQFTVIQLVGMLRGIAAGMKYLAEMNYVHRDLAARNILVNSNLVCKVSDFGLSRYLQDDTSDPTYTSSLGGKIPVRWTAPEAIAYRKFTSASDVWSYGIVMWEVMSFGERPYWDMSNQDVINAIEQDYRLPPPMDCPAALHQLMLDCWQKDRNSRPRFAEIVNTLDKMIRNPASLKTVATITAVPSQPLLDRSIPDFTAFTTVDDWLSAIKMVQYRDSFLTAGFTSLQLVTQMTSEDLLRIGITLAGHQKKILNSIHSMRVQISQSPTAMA
The following applies: kinase EPHB1, 1 µmol/L single concentration, cited from earlier work.

Data set [5] addresses panel of 255 wild-type kinases (Homo sapiens, UniProt Q13177). The following applies: PAK2, 1 µmol/L single concentration, cited from earlier work.
The test system of data set [6] is panel of 255 wild-type kinases. The settings on record: cited from earlier work.
Setting [7] is: ref DOI: 10.1158/1535-7163.MCT-18-0877.
[8] abbreviates: ref DOI: 10.1371/journal.pone.0092146.
Setting [9] is: kinase LYNb, 1 µmol/L single concentration, ref DOI: 10.1371/journal.pone.0092146.
[10] abbreviates: kinase PKCβ2, 1 µmol/L single concentration, ref DOI: 10.1371/journal.pone.0092146.
The mark [11] stands for this setting: kinase SRM, 1 µmol/L single concentration, ref DOI: 10.1371/journal.pone.0092146.

`C=CC(=O)Nc1cc(Nc2nccc(-c3cn(C)c4ccccc34)n2)c(OC)cc1N(C)CCN(C)C` [osimertinib]: the “%-inhibition at 1 µmol/L, IKKα” value in data set [1] (setting [7]) is 5%. Also, the “%-inhibition at 1 µmol/L, RET” value in data set [2] (setting [7]) is reported as 7%. In addition, the “%-inhibition, NEK2” value in data set [3] (setting [7]) is listed as 8%. For the same compound, in data set [4] (setting [7]), the “%-inhibition at 1 µmol/L, EPHB1” value is 13%. Further, in data set [5] (setting [7]), the “%-inhibition, PAK2” value is listed as -14%. In data set [6], the “%-inhibition at 1 µmol/L, FYN [isoform b]” value is given as 14%; the “%-inhibition at 1 µmol/L, LYNb” value was 10%; the “%-inhibition at 1 µmol/L, PKCβ2” value is 17%; the “%-inhibition at 1 µmol/L, SRM” value is listed as 32%.

Turning to `CC(=O)Nc1cccc(-n2c(=O)n(C3CC3)c(=O)c3c(Nc4ccc(I)cc4F)n(C)c(=O)c(C)c32)c1` [trametinib], the “%-inhibition at 1 µmol/L, IKKα” value in data set [1] (setting [8]) is 2.63%. The “%-inhibition at 1 µmol/L, RET” value in data set [2] (setting [8]) is -8%. Moreover, the “%-inhibition, NEK2” value in data set [3] (setting [8]) was 2.76%. Also, in data set [4] (setting [8]), the “%-inhibition at 1 µmol/L, EPHB1” value is on record as -8%. Also, the “%-inhibition, PAK2” value in data set [5] (setting [8]) is -9%. Further, in data set [6] (setting [9]), the “%-inhibition at 1 µmol/L, LYNb” value is recorded as -2.58%. Further, the “%-inhibition at 1 µmol/L, PKCβ2” value in data set [6] (setting [10]) is -1.58%. For the same compound, in data set [6] (setting [11]), the “%-inhibition at 1 µmol/L, SRM” value is on record as -4%.

Consider `CCCS(=O)(=O)Nc1ccc(F)c(C(=O)c2c[nH]c3ncc(-c4ccc(Cl)cc4)cc23)c1F` [vemurafenib], for which the “%-inhibition at 1 µmol/L, IKKα” value in data set [1] (setting [8]) was -1.89%. In addition, the “%-inhibition at 1 µmol/L, RET” value in data set [2] (setting [8]) was 32%. Moreover, the “%-inhibition, NEK2” value in data set [3] (setting [8]) is -1%. Also, the “%-inhibition at 1 µmol/L, EPHB1” value in data set [4] (setting [8]) is -1.63%. Also, the “%-inhibition, PAK2” value in data set [5] (setting [8]) is 13%. Besides, the “%-inhibition at 1 µmol/L, LYNb” value in data set [6] (setting [9]) is reported as 62%. For the same compound, the “%-inhibition at 1 µmol/L, PKCβ2” value in data set [6] (setting [10]) is -3%. In addition, in data set [6] (setting [11]), the “%-inhibition at 1 µmol/L, SRM” value is given as 102%.
